Measured values from patent publication US7045343B2, “Sterilization indicator test packs” (3M Innovative Properties Company, priority 1998, dated 2006).

How the values were obtained:
[1] = test system: Bacillus stearothermophilus spores; experiment: Spore outgrowth (color change) of indicators after prevacuum steam sterilization; format: cell-based; conditions: 4-pulse prevacuum steam 121° C.
Procedure: (§1) The indicators prepared for the Examples were dual rapid readout indicators that provided both a rapid, enzyme-based efficacy test and a confirmatory spore outgrowth test. Spores coated on the carrier strip 16 served as the source of active enzyme whose activity was measured by the rapid enzyme test. These same spores were then incubated in the spore outgrowth portion of the test.
(§2) Bacillus stearothermophilus, commercially available as ATCC 7953 from American Type Culture Collection, Rockville, Md., was grown overnight (16 hours) at 58° C. in tryptic soy broth. This culture was used to inoculate the surface of agar plates consisting of 8 g/l nutrient broth, 4 g/l yeast extract, 0.1 g/l manganese chloride and 20 g/l agar at pH 7.2. Plates were incubated at 58° C. for 72 hours. Spores were scraped from the plates and suspended in sterile distilled water. The spores were separated from the vegetative debris by centrifuging the suspension at 7000 rpm and 4° C. for 20 minutes. The supernatant was poured off and the spores were resuspended in sterile distilled water. The cleaning procedure was repeated several times. After the final wash, the spores were suspended in sterile distilled water, at a concentration of approximately 1×10^8 spores per milliliter.
(§3) The spores were then treated with the chemicals identified in Tables 1–5. All chemicals tested were obtained from commercial sources. The spores were centrifuged at 6000 rpm for 10 minutes. The supernatant and coating chemical mixtures were heated at 60–80° C. for several minutes and vortexed to get the material into solution. The spores were then mixed into the sterilant-resistant chemical solution. The sterilant-resistant chemical solution was applied to 5×25 mm, 591 A paper strips (Schleicher & Schuell, Inc., Keene, N.H.) by pipetting 10–15 microliters to each strip for a final population of about 1×10^6 spores per strip. The strips were dried 16 hours at 37° C.
(§4) The treated spore strips were placed on the bottom of the outer container 12 of the indicator 10 and a barrier was inserted between the spore strip 16 and the inner container 18, which contained enzyme substrate. A […] ( 11/16 inch) disc of polypropylene blown microfiber material, with a weight of 200 g/m^2, commercially available as “THINSULATE™ 200-B brand Thermal Insulation” from 3M Company, St. Paul, Minn., was used as the barrier. The inner container 18 contained 0.67 ml nutrient medium, consisting of 17 g of a bacteriological peptone and a 0.17 g/l of L-alanine, as well as 0.1 g 4-methylumbelliferyl-alpha-D-glucoside, commercially available from Sigma Chemical Company, St. Louis, Mo., dissolved in 200 microliters of N,N-dimethylformamide, and 0.03 g bromocresol purple pH indicator dye, per liter of water. The pH of the enzyme substrate and nutrient medium solution was adjusted to 7.6 with 0.1N sodium hydroxide.
(§5) Sterilization indicators were made as described above with each of the chemicals and concentrations described in Table 1. Control indicators were made using untreated spores. The indicators were placed in metal instrument trays and exposed at 121° C. in a Getinge Steam Sterilizer (Getinge International, Inc., 1100 Towbin Ave., Lakewood, N.J.) using a 4-pulse prevacuum cycle at 121° C. with a vacuum level of 0.075–0.085 bar and a steam pulse to 1.00 bar for each pulse. Indicators were exposed in the sterilizer for between 7 and 13 minutes. This cycle is depicted in the time-pressure diagram in FIG. 5. After exposure the inner containers containing the enzyme substrate and nutrient medium were crushed and the indicators were incubated at 60° C. The indicators were examined for fluorescence using a 3M™ ATTEST™ Model 190 Rapid Autoreader, commercially available from 3M Company, St. Paul, Minn. Additionally, spore growth, as indicated by a color change from purple to yellow, was determined visually after 168 hours of incubation at 60° C. […]

[2] = test system: enzyme associated with Bacillus stearothermophilus spores; experiment: Rapid enzyme fluorescence readout of dual rapid readout indicators after prevacuum steam sterilization; format: biochemical; conditions: 4-pulse prevacuum steam 121° C.
Procedure: as §1, §2, §3, §4, §5

[3] = test system: Bacillus stearothermophilus spores; experiment: Spore outgrowth (color change) of indicators after hydrogen peroxide plasma sterilization; format: cell-based; conditions: 1–22 min diffusion
Procedure: (§6) Sterilization indicators for Examples 6–9 were prepared as described above with the exception that closure member 22 of the sterilization indicator was constructed of TYVEK™ high-density polyethylene fiber material, commercially available from E.I. du Pont de Nemours and Co., Wilmington, Del.
(§7) Sterilization indicators were made as described above with spores that had been coated with each of the chemicals and concentrations listed in Table 6. The indicators were placed in instrument trays and exposed to a hydrogen peroxide plasma sterilization procedure at 45–55° C. in a STERRAD™ 100SI GMP Sterilizer, obtained from Advanced Sterilization Products Co., Irvine, Calif. During the sterilization procedure a vacuum was drawn in the sterilization chamber for 5–6 minutes until the pressure was reduced to 300 mTorr. A 1.8 ml aliquot of an aqueous solution of 58–60% hydrogen peroxide was then injected into the sterilization chamber over a period of about 6 minutes, yielding an empty chamber concentration of […] hydrogen peroxide, and hydrogen peroxide vapor was allowed to diffuse throughout the chamber for 1–22 minutes at 6–10 Torr. A vacuum was then drawn, reducing the pressure to 500 mTorr and removing all detectable hydrogen peroxide vapor from the chamber.
(§8) After exposure to the sterilization procedure, the indicators were removed from the sterilizer and the inner containers containing the enzyme substrate and nutrient medium were crushed. The indicators were then incubated at 60° C. and examined for fluorescence every hour for 5 hours using a 3M™ ATTEST™ Model 190 Rapid Autoreader, commercially available from 3M Company, St. Paul, Minn. Additionally, spore growth, as indicated by a color change from purple to yellow, was determined visually after 168 hours of incubation.
(§9) The number of growth positive indicators detected after 168 hours of incubation is recorded in Table 6.
as §7, with “7.” for “6.”
as §7, with “8.” for “6.”, “chamber. […]” for “chamber.”

[4] = test system: enzyme associated with Bacillus stearothermophilus spores; experiment: Rapid enzyme fluorescence readout of indicators after hydrogen peroxide plasma sterilization; format: biochemical; conditions: for FLUORESCENCE - PERCENT POSITIVE 1 HR / FLUORESCENCE - PERCENT POSITIVE 2 HR / FLUORESCENCE - PERCENT POSITIVE 3 HR / FLUORESCENCE - PERCENT POSITIVE 4 HR / FLUORESCENCE - PERCENT POSITIVE 5 HR: 1–22 min diffusion
Procedure: as §6, §7, §8, §9
as §7, with “7.” for “6.”
as §7, with “8.” for “6.”, “chamber. […]” for “chamber.”

[5] = Example 4, 50 mg/ml coating, 7–18 min
[6] = Example 4, 100 mg/ml coating, 7–18 min
[7] = Example 5, 50 mg/ml coating, 7–13 min
[8] = Example 5, 100 mg/ml coating, 7–13 min
[9] = Example 3, 100 mg/ml coating, 7–15 min

Decaglyceryl Monooleate
NO. GROWTH POSITIVE 168 HR [1, 5]: 10 | NO. GROWTH POSITIVE 168 HR [1, 6]: 26 | NO. GROWTH POSITIVE 168 HR [1, 7]: 6 | NO. GROWTH POSITIVE 168 HR [1, 8]: 2 | accuracy of sterilization indicators compared to indicators made with untreated spores [2]: improved | FLUORESCENCE - PERCENT POSITIVE 1 HR [2, 5]: 0% | FLUORESCENCE - PERCENT POSITIVE 2 HR [2, 5]: 0% | FLUORESCENCE - PERCENT POSITIVE 3 HR [2, 5]: 0% | FLUORESCENCE - PERCENT POSITIVE 4 HR [2, 5]: 0% | FLUORESCENCE - PERCENT POSITIVE 1 HR [2, 6]: 7.7% | FLUORESCENCE - PERCENT POSITIVE 2 HR [2, 6]: 23.1% | FLUORESCENCE - PERCENT POSITIVE 3 HR [2, 6]: 50% | FLUORESCENCE - PERCENT POSITIVE 4 HR [2, 6]: 73.1% | FLUORESCENCE - PERCENT POSITIVE 1 HR [2, 7]: 0% | FLUORESCENCE - PERCENT POSITIVE 2 HR [2, 7]: 0% | FLUORESCENCE - PERCENT POSITIVE 3 HR [2, 7]: 0% | FLUORESCENCE - PERCENT POSITIVE 4 HR [2, 7]: 0% | FLUORESCENCE - PERCENT POSITIVE 1 HR [2, 8]: 0% | FLUORESCENCE - PERCENT POSITIVE 2 HR [2, 8]: 50% | FLUORESCENCE - PERCENT POSITIVE 3 HR [2, 8]: 100% | FLUORESCENCE - PERCENT POSITIVE 4 HR [2, 8]: 100%

Hexaglyn Di-Stearate
NO. GROWTH POSITIVE 168 HR ([3]; Example 8, 25 mg/ml coating): 16 | NO. GROWTH POSITIVE 168 HR ([3]; Example 8, 50 mg/ml coating): 16 | NO. GROWTH POSITIVE 168 HR ([3]; Example 8, 100 mg/ml coating): 16 | accuracy of sterilization indicators compared to indicators made with untreated spores ([4]; 1–3 hours after exposure): improved | FLUORESCENCE - PERCENT POSITIVE 1 HR ([4]; Example 8, 25 mg/ml coating): 100% | FLUORESCENCE - PERCENT POSITIVE 2 HR ([4]; Example 8, 25 mg/ml coating): 100% | FLUORESCENCE - PERCENT POSITIVE 3 HR ([4]; Example 8, 25 mg/ml coating): 100% | FLUORESCENCE - PERCENT POSITIVE 4 HR ([4]; Example 8, 25 mg/ml coating): 100% | FLUORESCENCE - PERCENT POSITIVE 5 HR ([4]; Example 8, 25 mg/ml coating): 100% | FLUORESCENCE - PERCENT POSITIVE 1 HR ([4]; Example 8, 50 mg/ml coating): 100% | FLUORESCENCE - PERCENT POSITIVE 2 HR ([4]; Example 8, 50 mg/ml coating): 100% | FLUORESCENCE - PERCENT POSITIVE 3 HR ([4]; Example 8, 50 mg/ml coating): 100% | FLUORESCENCE - PERCENT POSITIVE 4 HR ([4]; Example 8, 50 mg/ml coating): 100% | FLUORESCENCE - PERCENT POSITIVE 5 HR ([4]; Example 8, 50 mg/ml coating): 100% | FLUORESCENCE - PERCENT POSITIVE 1 HR ([4]; Example 8, 100 mg/ml coating): 100% | FLUORESCENCE - PERCENT POSITIVE 2 HR ([4]; Example 8, 100 mg/ml coating): 100% | FLUORESCENCE - PERCENT POSITIVE 3 HR ([4]; Example 8, 100 mg/ml coating): 100% | FLUORESCENCE - PERCENT POSITIVE 4 HR ([4]; Example 8, 100 mg/ml coating): 100% | FLUORESCENCE - PERCENT POSITIVE 5 HR ([4]; Example 8, 100 mg/ml coating): 100%

Alkyl Polyglucoside
NO. GROWTH POSITIVE 168 HR ([3]; Example 8, 20 mg/ml coating): 5 | NO. GROWTH POSITIVE 168 HR ([3]; Example 8, 40 mg/ml coating): 1 | FLUORESCENCE - PERCENT POSITIVE 1 HR ([4]; Example 8, 20 mg/ml coating): 0% | FLUORESCENCE - PERCENT POSITIVE 2 HR ([4]; Example 8, 20 mg/ml coating): 0% | FLUORESCENCE - PERCENT POSITIVE 3 HR ([4]; Example 8, 20 mg/ml coating): 0% | FLUORESCENCE - PERCENT POSITIVE 4 HR ([4]; Example 8, 20 mg/ml coating): 0% | FLUORESCENCE - PERCENT POSITIVE 5 HR ([4]; Example 8, 20 mg/ml coating): 0% | FLUORESCENCE - PERCENT POSITIVE 1 HR ([4]; Example 8, 40 mg/ml coating): 0% | FLUORESCENCE - PERCENT POSITIVE 2 HR ([4]; Example 8, 40 mg/ml coating): 0% | FLUORESCENCE - PERCENT POSITIVE 3 HR ([4]; Example 8, 40 mg/ml coating): 0% | FLUORESCENCE - PERCENT POSITIVE 4 HR ([4]; Example 8, 40 mg/ml coating): 0% | FLUORESCENCE - PERCENT POSITIVE 5 HR ([4]; Example 8, 40 mg/ml coating): 0%

OC[C@@H](O)[C@@H](O)[C@H](O)[C@@H](O)CO [Sorbitol]
GROWTH POSITIVE 168 HR [1, 9]: 36 | NO. GROWTH POSITIVE 168 HR [1, 6]: 37 | FLUORESCENCE - PERCENT POSITIVE 1 HR [2, 9]: 0% | FLUORESCENCE - PERCENT POSITIVE 2 HR [2, 9]: 52.8% | FLUORESCENCE - PERCENT POSITIVE 3 HR [2, 9]: 83.3% | FLUORESCENCE - PERCENT POSITIVE 4 HR [2, 9]: 91.7% | FLUORESCENCE - PERCENT POSITIVE 1 HR [2, 6]: 5.4% | FLUORESCENCE - PERCENT POSITIVE 2 HR [2, 6]: 40.5% | FLUORESCENCE - PERCENT POSITIVE 3 HR [2, 6]: 81.1% | FLUORESCENCE - PERCENT POSITIVE 4 HR [2, 6]: 89.2%
